Test results reported in patent US12570662B2, “Substituted pyrrolo[1,2-b]pyridazines as bifunctional degraders of interleukin-1 receptor-associated kinases” (Nurix Therapeutics, Inc., priority 2021, dated 2026).

Molecular target: T1, IRAK4 (Homo sapiens, UniProt Q9NWZ3)
T1 construct: C-terminal HiBiT-tagged Jurkat cells (polyclonal cell line or clone 8D5); endogenous in cells; host or cells: Jurkat cells (polyclonal cell line or clone 8D5), HiBiT-tagged
T1 sequence (Q9NWZ3 1-460): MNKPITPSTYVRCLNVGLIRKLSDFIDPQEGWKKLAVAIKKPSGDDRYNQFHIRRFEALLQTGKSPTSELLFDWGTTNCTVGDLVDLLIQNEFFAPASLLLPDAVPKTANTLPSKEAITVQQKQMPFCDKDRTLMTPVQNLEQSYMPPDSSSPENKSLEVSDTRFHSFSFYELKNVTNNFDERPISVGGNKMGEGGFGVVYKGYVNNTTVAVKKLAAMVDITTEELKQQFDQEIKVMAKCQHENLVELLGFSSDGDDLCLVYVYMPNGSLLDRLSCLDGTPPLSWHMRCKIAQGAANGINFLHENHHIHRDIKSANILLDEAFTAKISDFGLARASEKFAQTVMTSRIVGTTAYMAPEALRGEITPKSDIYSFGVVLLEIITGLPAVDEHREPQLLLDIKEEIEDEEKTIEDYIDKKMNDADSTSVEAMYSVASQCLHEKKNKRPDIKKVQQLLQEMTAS
Assay: IRAK4 Degradation HiBit Assay
Assay type: cell-based
Settings: C-terminal HiBiT-tagged Jurkat cells, 4 hrs incubation; for DC50: % IRAK4 remaining, four-parameter fit (IC50 used as DC50); for Dmax: from fit of % IRAK4 remaining, read-out: Dmax
Method in brief: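 Jurkat cells carrying C-terminal HiBiT-tagged IRAK4 (polyclonal or clone 8D5) exposed to compound, 10 μM–0.1 nM final over 11 points, for 4 h at 32 °C. Remaining IRAK4 measured by lytic HiBiT/LgBiT luminescence relative to DMSO. DC50 and Dmax taken from four-parameter variable-slope fits.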

Row | SMILES | DC50 [nM] | Dmax [%]
1 | CNc1cc(-c2ccc3cc(C#N)cnn23)ncc1-c1nnc(C23CCC(NC(=O)C4CCN(c5ccc(C6CCC(=O)NC6=O)cn5)CC4)(CC2)CC3)s1 (racemic) [Example 47, rac-N-{4-[5-(6-{3-cyanopyrrolo[1,2-b]pyridazin-7-yl}-4-(methylamino)pyridin-3-yl)-1,3,4-thiadiazol-2-yl]bicyclo[2.2.2]octan-1-yl}-1-{5-[(3R)-2,6-dioxopiperidin-3-yl]pyridin-2-yl}piperidine-4-carboxamide] | 15 | 111
2 | CC(C)Nc1cc(-c2ccc3cc(C#N)cnn23)ncc1-c1nnc(N2CCN(C(=O)C3CCN(c4ccc(C5CCC(=O)NC5=O)cn4)CC3)CC2)s1 (racemic) [Example 48, rac-7-(5-{5-[4-(1-{5-[(3R)-2,6-dioxopiperidin-3-yl]pyridin-2-yl}piperidine-4-carbonyl)piperazin-1-yl]-1,3,4-thiadiazol-2-yl}-4-[(propan-2-yl)amino]pyridin-2-yl)pyrrolo[1,2-b]pyridazine-3-carbonitrile] | 23 | 109
3 | CNc1cc(-c2ccc3cc(C#N)cnn23)ncc1-c1nnc([C@H]2CC[C@H](N(C)C(=O)C3CCN(c4ccc([C@@H]5CCC(=O)NC5=O)cn4)CC3)CC2)s1 (racemic) [Example 49, 1-{5-[(3RS)-2,6-dioxopiperidin-3-yl]pyridin-2-yl}-N-methyl-N-[(1r,4r)-4-[5-(6-{3-cyanopyrrolo[1,2-b]pyridazin-7-yl}-4-(methylamino)pyridin-3-yl)-1,3,4-thiadiazol-2-yl]cyclohexyl]piperidine-4-carboxamide] | 13 | 112
4 | CNc1cc(-c2ccc3cc(C#N)cnn23)ncc1-c1nnc(N2CCC(N3CCN(CC4CCN(c5ccc(C6CCC(=O)NC6=O)cn5)CC4)CC3)CC2)s1 (racemic) [Example 50, 7-[5-(5-{4-[4-({1-[5-(2,6-dioxopiperidin-3-yl)pyridin-2-yl]piperidin-4-yl}methyl)piperazin-1-yl]piperidin-1-yl}-1,3,4-thiadiazol-2-yl)-4-(methylamino)pyridin-2-yl]pyrrolo[1,2-b]pyridazine-3-carbonitrile] | 91 | 111
5 | CNc1cc(-c2ccc3cc(C#N)cnn23)ncc1-c1nnc(N2CCN(C(=O)C3CCN(c4ccc(C5CCC(=O)NC5=O)cn4)CC3)CC2)s1 (racemic) [Example 51, 7-{5-[5-(4-{1-[5-(2,6-dioxopiperidin-3-yl)pyridin-2-yl]piperidine-4-carbonyl}piperazin-1-yl)-1,3,4-thiadiazol-2-yl]-4-(methylamino)pyridin-2-yl}pyrrolo[1,2-b]pyridazine-3-carbonitrile] | 10 | 112
6 | CNc1cc(-c2ccc3cc(C#N)cnn23)ncc1-c1nnc([C@H]2CC[C@H](N(C)CC3CCN(c4ccc([C@@H]5CCC(=O)NC5=O)cn4)CC3)CC2)s1 (racemic) [Example 52, 7-[4-(methylamino)-5-{5-[(1r,4r)-4-{[(1-{5-[(3RS)-2,6-dioxopiperidin-3-yl]pyridin-2-yl}piperidin-4-yl)methyl](methyl)amino}cyclohexyl]-1,3,4-thiadiazol-2-yl}pyridin-2-yl]pyrrolo[1,2-b]pyridazine-3-carbonitrile] | 19 | 113
7 | CNc1cc(-c2ccc3cc(C#N)cnn23)ncc1-c1nnc(N2CCN(C3CCN(CC4CCN(c5ccc(C6CCC(=O)NC6=O)cn5)CC4)CC3)CC2)s1 (racemic) [Example 53, rac-7-{5-[5-(4-{1-[(1-{5-[(3R)-2,6-dioxopiperidin-3-yl]pyridin-2-yl}piperidin-4-yl)methyl]piperidin-4-yl}piperazin-1-yl)-1,3,4-thiadiazol-2-yl]-4-(methylamino)pyridin-2-yl}pyrrolo[1,2-b]pyridazine-3-carbonitrile] | 64 | 114
8 | CNc1cc(-c2ccc3cc(C#N)cnn23)ncc1-c1nnc(N2CCC(C3CCN(CC4CCN(c5ccc(C6CCC(=O)NC6=O)cn5)CC4)CC3)CC2)s1 (racemic) [Example 54, rac-7-[5-(5-{1′-[(1-{5-[(3R)-2,6-dioxopiperidin-3-yl]pyridin-2-yl}piperidin-4-yl)methyl]-[4,4′-bipiperidin]-1-yl}-1,3,4-thiadiazol-2-yl)-4-(methylamino)pyridin-2-yl]pyrrolo[1,2-b]pyridazine-3-carbonitrile] | 95 | 112
9 | CNc1cc(-c2ccc3cc(C#N)cnn23)ncc1-c1nnc(N2CC3(CCN(CC4CCN(c5ccc(C6CCC(=O)NC6=O)cn5)CC4)CC3)C2)s1 (racemic) [Example 55, rac-7-[5-(5-{7-[(1-{5-[(3R)-2,6-dioxopiperidin-3-yl]pyridin-2-yl}piperidin-4-yl)methyl]-2,7-diazaspiro[3.5]nonan-2-yl}-1,3,4-thiadiazol-2-yl)-4-(methylamino)pyridin-2-yl]pyrrolo[1,2-b]pyridazine-3-carbonitrile] | 61 | 109
10 | CC(C)Nc1cc(-c2ccc3cc(C#N)cnn23)ncc1-c1nnc(N2CCN(CC3CCN(c4ccc(C5CCC(=O)NC5=O)cn4)CC3)CC2)s1 (racemic) [Example 56, rac-7-[5-(5-{4-[(1-{5-[(3R)-2,6-dioxopiperidin-3-yl]pyridin-2-yl}piperidin-4-yl)methyl]piperazin-1-yl}-1,3,4-thiadiazol-2-yl)-4-[(propan-2-yl)amino]pyridin-2-yl]pyrrolo[1,2-b]pyridazine-3-carbonitrile] | 160 | 102
11 | N#Cc1cnn2c(-c3cc(NC4CCOCC4)c(-c4nnc(C56CCC(C(=O)N7CCc8cc(C9CCC(=O)NC9=O)ccc8C7)(CC5)CC6)s4)cn3)ccc2c1 (racemic) [Example 57, rac-7-{5-[5-(4-{6-[(3R)-2,6-dioxopiperidin-3-yl]-1,2,3,4-tetrahydroisoquinoline-2-carbonyl}bicyclo[2.2.2]octan-1-yl)-1,3,4-thiadiazol-2-yl]-4-[(oxan-4-yl)amino]pyridin-2-yl}pyrrolo[1,2-b]pyridazine-3-carbonitrile] | 71 | 104
12 | CC1(Nc2cc(-c3ccc4cc(C#N)cnn34)ncc2-c2nnc(N3CCN(CC4CCN(c5ccc(C6CCC(=O)NC6=O)cn5)CC4)CC3)s2)COC1 (racemic) [Example 58, rac-7-[5-(5-{4-[(1-{5-[(3R)-2,6-dioxopiperidin-3-yl]pyridin-2-yl}piperidin-4-yl)methyl]piperazin-1-yl}-1,3,4-thiadiazol-2-yl)-4-[(3-methyloxetan-3-yl)amino]pyridin-2-yl]pyrrolo[1,2-b]pyridazine-3-carbonitrile] | 21 | 113
13 | N#CCNc1cc(-c2ccc3cc(C#N)cnn23)ncc1-c1nnc(N2CCN(CC3CCN(c4ccc(C5CCC(=O)NC5=O)cn4)CC3)CC2)s1 (racemic) [Example 59, rac-7-{4-[(cyanomethyl)amino]-5-(5-{4-[(1-{5-[(3R)-2,6-dioxopiperidin-3-yl]pyridin-2-yl}piperidin-4-yl)methyl]piperazin-1-yl}-1,3,4-thiadiazol-2-yl)pyridin-2-yl}pyrrolo[1,2-b]pyridazine-3-carbonitrile] | 7 | 120
14 | N#Cc1cnn2c(-c3cc(NC4COC4)c(-c4nnc(N5CCN(CC6CCN(c7ccc(C8CCC(=O)NC8=O)cn7)CC6)CC5)s4)cn3)ccc2c1 (racemic) [Example 61, rac-7-[5-(5-{4-[(1-{5-[(3R)-2,6-dioxopiperidin-3-yl]pyridin-2-yl}piperidin-4-yl)methyl]piperazin-1-yl}-1,3,4-thiadiazol-2-yl)-4-[(oxetan-3-yl)amino]pyridin-2-yl]pyrrolo[1,2-b]pyridazine-3-carbonitrile] | 18 | 111
15 | CC(C)Nc1cc(-c2ccc3cc(C#N)cnn23)ncc1-c1nnc(N2CCN(CC3CCN(c4ccc(C5CCC(=O)NC5=O)cc4)CC3)CC2)s1 (racemic) [Example 64, rac-7-[5-(5-{4-[(1-{4-[(3R)-2,6-dioxopiperidin-3-yl]phenyl}piperidin-4-yl)methyl]piperazin-1-yl}-1,3,4-thiadiazol-2-yl)-4-[(propan-2-yl)amino]pyridin-2-yl]pyrrolo[1,2-b]pyridazine-3-carbonitrile] | 123 | 76
16 | N#Cc1cnn2c(-c3cc(NC4CCOCC4)c(-c4nnc(N5CCN(C(=O)CN6CCc7cc(C8CCC(=O)NC8=O)ccc7C6)CC5)s4)cn3)ccc2c1 (racemic) [Example 66, rac-7-(5-{5-[4-(2-{6-[(3R)-2,6-dioxopiperidin-3-yl]-1,2,3,4-tetrahydroisoquinolin-2-yl}acetyl)piperazin-1-yl]-1,3,4-thiadiazol-2-yl}-4-[(oxan-4-yl)amino]pyridin-2-yl)pyrrolo[1,2-b]pyridazine-3-carbonitrile] | 8 | 110
17 | N#Cc1cnn2c(-c3cc(NC4CC4)c(-c4nnc(N5CCN(CC6CCN(c7ccc(C8CCC(=O)NC8=O)cn7)CC6)CC5)s4)cn3)ccc2c1 (racemic) [Example 67, rac-7-[4-(cyclopropylamino)-5-(5-{4-[(1-{5-[(3R)-2,6-dioxopiperidin-3-yl]pyridin-2-yl}piperidin-4-yl)methyl]piperazin-1-yl}-1,3,4-thiadiazol-2-yl)pyridin-2-yl]pyrrolo[1,2-b]pyridazine-3-carbonitrile] | 38 | 85
